Measurements as given in patent publication US20140314686A1, “POLYPHENOL/FLAVONOID COMPOSITIONS AND METHODS OF FORMULATING ORAL HYGIENIC PRODUCTS” (API Genesis, LLC, priority 2013, published 2014).
Converted amounts (≈) assume the structure as drawn.

Assays:
[1] = Solubilization in Listerine mouth rinse via sodium salt and pH adjustment; type: physicochemical
Method: 100 grams of the Listerine® Resveratrol Containing Mouth Rinse formulation was prepared as follows: • 1. 98.4 grams of the Listerine® caramel colored mouth rinse was added to a 300 ml Pyrex glass beaker. […] About 0.2 grams of fine NaOH crystals were added to the mixture from Step 2 and thoroughly mixed. A uniformly caramel colored blend resulted with a measured pH of ˜10. […] The pH the mixture from Step 3 was adjusted to a pH 6.5 by the addition of about 0.2 grams of citric acid crystals. […] • 1. 98.6 grams of the Listerine® caramel colored mouthrinse was added to a 300 ml Pyrex glass beaker. […] About 0.2 grams of fine NaOH crystals were added to the mixture from Step 2 and thoroughly mixed. A uniformly caramel colored blend resulted with a measured pH of ˜10. […] The pH the mixture from Step 2 was adjusted to a pH 8 by the addition of about 0.2 grams of citric acid crystals.

[2] = Solubility in PS80 via the thermal processing method (polyphenol/surfactant concentrate); details: for PS80 Solution Temp.: temperature of complete solubilization in PS80; for solubility: 20 °C, organic solvent or mixture
Method: The molar ratio of active agent (polyphenol) to solubilizing agent (surfactant) is typically 1:2 to 1:5, and at times much greater, e.g. 1:2 to 1:20 depending on the active agent/surfactant combination.
Apigenin/Polysorbate 80 (PS80) formulations can be made as follows: • Apigenin powder and PS80 are mixed in the ratio from about 5 to 10 wt. % of apigenin to 95 to 90 wt. % PS80.
All solubility tests were conducted with 20 ml of PS80 contained within 80 ml Pyrex glass beakers.

[3] = EGCG retention in saliva after brushing with alkaline EGCG toothpaste (colour on alkalizing); type: in vivo, human; details: PeroxiCare toothpaste with 0.1 wt. % EGCG and 0.1 wt. % ascorbic acid, saliva after brushing and rinsing
[4] = Stability of soluble flavone sodium salts in bicarbonate/peroxide dentifrice; type: physicochemical; details: dentifrice with sodium bicarbonate, peroxide and peroxide stabilizer, pH ~10-10.5
Method: It was experimentally determined that the toothpaste formulations containing both sodium bicarbonate and sodium carbonate peroxide together with stabilizing polymer formulations had pHs of ˜10-10.5. When aglycone flavone (i.e., apigenin and luteolin) powders were added to dentifrices including sodium bicarbonate, sodium bicarbonate peroxide and a peroxide stabilizer, it was also determined that soluble flavone sodium salts were formed that were stable in these highly oxidative peroxide compositions. The presence of stable soluble alkali metal flavone salts with highly anti-oxidant and anti-inflammatory properties in an emulsion formulation was totally unanticipated since aglycone flavones are prone to oxidative decomposition.

[5] = pH required for a stable aqueous microemulsion with nonionic surfactants; type: physicochemical; details: nonionic surfactants Polysorbate 80 and Cremophor RH40
From the text: In one embodiment, a flavonoid/polyphenol microemulsion can be made as follows: • The mixing of a flavonoid/polyphenol with an alkali metal component (e.g., alkali metal hydroxide(s) and/or alkaline metal salt(s)) to form an alkali metal flavonoid/polyphenol salt within an aqueous solution. • Adding a surfactant in the ratio from about 5 to 20 wt. % of the flavonoid/polyphenol to 95 to 80 wt. % of a surfactant; preferable a nonionic surfactant. • This mixture is thoroughly stirred to form a uniform clear solution. • Adjusting (e.g., acidifying) the alkali metal flavonoid/polyphenol salt with an agent (e.g., an acidic agent such as acetic acid and/or hydrochloric acid) to a pH level required to form a clear and stable microemulsion.
Stable microemulsions with apigenin and the nonionic surfactants, Polysorbate 80 and Cremophor RH40, were achieved provided a pH level of 8.0 to 8.5 was maintained. For luteolin, it as determined that a pH of 7 was required to maintain a stable aqueous microemulsion; and for resveratrol, a pH of >4.5 to 7.5.

Compound | PS80 Solution Temp. [2] [°C] | solubility ([2]; Polysorbate 80 (PS80)) [mg/mL] | solubility (Solubility in water; water, 20 °C) [mg/mL] | other results
Oc1ccc(C=Cc2cc(O)cc(O)c2)cc1 [Resveratrol, resveratrol] | – | – | – | concentration in transparent solution ([1]; NaOH to pH ~10, citric acid to pH 6.5): 1200 µg/mL
O=C(O[C@@H]1Cc2c(O)cc(O)cc2O[C@@H]1c1cc(O)c(O)c(O)c1)c1cc(O)c(O)c(O)c1 [Epigallocatechin Gallate (EGCG), Epigallocatechin gallate] | ~150 | 50 | ~25 (≈ 54500 µM) | retention in saliva (red/brown color on alkalizing saliva to pH ~10.5) [3]: retained
O=c1c(-c2ccc(O)cc2)coc2cc(O)cc(O)c12 [Genistein] | ~220 | – | – | solubility [2]: 50 mg/mL; solubility (Solubility in water; 20 °C, water): 0.12 mg/mL (≈ 444 µM)
O=c1cc(-c2ccc(O)cc2)oc2cc(O)cc(O)c12 [Apigenin, 4′,5,7,-trihydroxyflavone] | – | – | – | concentration of stable concentrate in PS80 ([2]; 5.0 wt. % in PS80, heated approaching 300 degree C, cooled to ambient): 50000 µg/mL; stability of soluble flavone sodium salt in oxidative peroxide composition [4]: stable
O=c1cc(-c2ccc(O)c(O)c2)oc2cc(O)cc(O)c12 [Luteolin, 3′,4′,5,7-tetrahydroxyflavone] | – | – | – | pH level for a stable aqueous microemulsion [5]: 7; stability of soluble flavone sodium salt in oxidative peroxide composition [4]: stable; concentration in transparent solution ([1]; NaOH to pH ~10, citric acid to pH 8): 1500 µg/mL

Second part, led by results:

PS80 Solution Temp. [2] [°C] | solubility ([2]; Polysorbate 80 (PS80)) [mg/mL] | solubility (Solubility in water; water, 20 °C) [mg/mL] | Compound | other results
~210 | – | – | O.Oc1cc(O)c2c(c1)O[C@H](c1ccc(O)c(O)c1)[C@@H](O)C2 [Catechin] | PS80 Solubility ([2]; at 20° C., 20 ml PS80, not the maximum solubility levels in PS80): 50 mg/mL; Water Solubility (Solubility in water; at 20° C.): ~5 mg/mL
~140 | 50 | 0.08 (≈ 315 µM) | O=c1cc(-c2ccccc2)oc2cc(O)cc(O)c12 [Chrysin] | –
~280 | 50 | 0.04 (≈ 147 µM) | O=C1C[C@@H](c2ccc(O)cc2)Oc2cc(O)cc(O)c21 [Naringenin] | –
